Several values for one entry are separate records, joined by “and”; a condition that tells them apart may be missing. Equal entries are not always repeated. Toxic doses and inconclusive results are not listed. Rule as the data show it: active = T/C of 150% or more; inactive = T/C below 125%.
System: L1210 leukemia ip in BDF1 mice, survival T/C
Experiment: NCI In Vivo Anticancer Drug Screen. Data for tumor model L1210 Leukemia (intraperitoneal) in B6D2F1 (BDF1) mice
Conditions: endpoint: mean survival time, higher = longer survival
How it was run: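 Tumor cells were implanted, animals were treated, and survival was followed. The result divides the treated measurement by the vehicle-control measurement.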

[1] = dose: 100.0 mg/kg/injection, schedule: Q04DX003 (ip), vehicle: acetone
[2] = dose: 200.0 mg/kg/injection, schedule: Q04DX003 (ip), vehicle: acetone
[3] = dose: 400.0 mg/kg/injection, schedule: Q04DX003 (ip), vehicle: acetone
[4] = dose: 100.0 mg/kg/injection, schedule: Q04DX003 (ip), vehicle: Klucel (hydroxypropylcellulose) (HPC)
[5] = dose: 200.0 mg/kg/injection, schedule: Q04DX003 (ip), vehicle: Klucel (hydroxypropylcellulose) (HPC)
[6] = dose: 400.0 mg/kg/injection, schedule: Q04DX003 (ip), vehicle: Klucel (hydroxypropylcellulose) (HPC)
[7] = dose: 100.0 mg/kg/injection, schedule: Q01DX001 (ip), vehicle: saline
[8] = dose: 200.0 mg/kg/injection, schedule: Q01DX001 (ip), vehicle: saline
[9] = dose: 400.0 mg/kg/injection, schedule: Q01DX001 (ip), vehicle: saline
[10] = dose: 100.0 mg/kg/injection, schedule: Q01DX001 (ip), vehicle: Klucel (hydroxypropylcellulose) (HPC)
[11] = dose: 200.0 mg/kg/injection, schedule: Q01DX001 (ip), vehicle: Klucel (hydroxypropylcellulose) (HPC)
[12] = dose: 400.0 mg/kg/injection, schedule: Q01DX001 (ip), vehicle: Klucel (hydroxypropylcellulose) (HPC)
[13] = dose: 100.0 mg/kg/injection, schedule: Q01DX009 (ip), vehicle: Klucel (hydroxypropylcellulose) (HPC)
[14] = dose: 200.0 mg/kg/injection, schedule: Q01DX009 (ip), vehicle: Klucel (hydroxypropylcellulose) (HPC)
[15] = dose: 400.0 mg/kg/injection, schedule: Q01DX009 (ip), vehicle: Klucel (hydroxypropylcellulose) (HPC)
[16] = dose: 25.0 mg/kg/injection, schedule: Q01DX009 (ip), vehicle: saline with Tween-80
[17] = dose: 50.0 mg/kg/injection, schedule: Q01DX009 (ip), vehicle: saline with Tween-80
[18] = dose: 75.0 mg/kg/injection, schedule: Q01DX009 (ip), vehicle: saline with Tween-80
[19] = dose: 100.0 mg/kg/injection, schedule: Q04DX003 (ip), vehicle: saline with Tween-80
[20] = dose: 200.0 mg/kg/injection, schedule: Q04DX003 (ip), vehicle: saline with Tween-80
[21] = dose: 400.0 mg/kg/injection, schedule: Q04DX003 (ip), vehicle: saline with Tween-80
[22] = dose: 100.0 mg/kg/injection, schedule: Q01DX009 (ip), vehicle: saline with Tween-80

Measured: T/C

CC(O)C/C=N\N=C(N)N (stereo unspecified)
inactive: dose: 15.0 mg/kg/injection, schedule: Q01DX Z (ip), vehicle: methylcellulose (MC) 95 % of control | dose: 15.0 mg/kg/injection, schedule: Q01DX Z (oral), vehicle: methylcellulose (MC) 101 % of control | dose: 30.0 mg/kg/injection, schedule: Q01DX Z (oral), vehicle: methylcellulose (MC) 88 % of control | dose: 60.0 mg/kg/injection, schedule: Q01DX Z (oral), vehicle: methylcellulose (MC) 94 % of control | dose: 120.0 mg/kg/injection, schedule: Q01DX Z (oral), vehicle: methylcellulose (MC) 88 % of control

O=S(=O)(C1=Cc2cccc3cccc1c23)c1ccccc1
inactive: dose: 100.0 mg/kg/injection, schedule: Q01DX001 (ip), vehicle: acetone 101 % of control | dose: 100.0 mg/kg/injection, schedule: Q01DX009 (ip), vehicle: saline 94 % of control | [1] 105 % of control | dose: 200.0 mg/kg/injection, schedule: Q01DX001 (ip), vehicle: acetone 92 % of control | dose: 200.0 mg/kg/injection, schedule: Q01DX009 (ip), vehicle: saline 96 % of control | [2] 105 % of control | dose: 400.0 mg/kg/injection, schedule: Q01DX001 (ip), vehicle: acetone 93 % of control | dose: 400.0 mg/kg/injection, schedule: Q01DX009 (ip), vehicle: saline 103 % of control | [3] 97 % of control

Cc1ccc(NC(=O)Nc2cc([N+](=O)[O-])ccc2C)cc1C
inactive: [4] 88 % of control | [5] 88 % of control | [6] 96 % of control

N#CCC1=CC(=O)C(=O)c2ccccc21
inactive: [7] 102 % of control | [8] 102 % of control | [9] 100 % of control

O=C1C=CC(=O)N1c1ccccc1Cl (tested in a mixture with another compound)
inactive: [1] 107 % of control | [2] 100 % of control | [3] 96 % of control

O=c1oc2ccccc2c(N2CCCCC2)c1Cl
inactive: dose: 100.0 mg/kg/injection, schedule: Q04DX002 (ip), vehicle: gum acacia 111 % of control | dose: 200.0 mg/kg/injection, schedule: Q04DX002 (ip), vehicle: gum acacia 104 % of control | dose: 400.0 mg/kg/injection, schedule: Q04DX002 (ip), vehicle: gum acacia 93 % of control

C/C(=C/CC1CCC2C3=CCC4CC(O)CCC4(C)C3CCC12C)C(C)C(C)C (stereo unspecified)
inactive: [10] 102 % of control | [11] 98 % of control | [12] 88 % of control

O=c1[nH]c(=O)c2nc3ccccc3nc2[nH]1
inactive: [13] 100 % of control | [14] 94 % of control | [15] 93 % of control

NC(CC(=O)O)c1cccs1 (stereo unspecified)
inactive: dose: 100.0 mg/kg/injection, schedule: Q04DX002 (ip), vehicle: saline 95 % of control | dose: 200.0 mg/kg/injection, schedule: Q04DX002 (ip), vehicle: saline 95 % of control | dose: 400.0 mg/kg/injection, schedule: Q04DX002 (ip), vehicle: saline 102 % of control

CN(C)c1ccc(/C=N\NC(=S)Nc2ccccc2)c(Cl)c1
inactive: dose: 12.5 mg/kg/injection, schedule: Q01DX009 (ip), vehicle: saline with Tween-80 89 % of control | dose: 12.5 mg/kg/injection, schedule: Q04DX003 (ip), vehicle: saline 98 % of control | [16] 91 % of control | dose: 25.0 mg/kg/injection, schedule: Q04DX003 (ip), vehicle: saline 102 % of control | [17] 97 % of control | dose: 50.0 mg/kg/injection, schedule: Q04DX003 (ip), vehicle: saline 95 % of control | [18] 101 % of control | [7] 87 % of control | dose: 115.0 mg/kg/injection, schedule: Q01DX009 (ip), vehicle: saline with Tween-80 98 % of control | dose: 170.0 mg/kg/injection, schedule: Q01DX009 (ip), vehicle: saline with Tween-80 92 % of control | [8] 95 % of control | [9] 92 % of control

NC(=O)c1cc[n+](-c2ccc([N+](=O)[O-])cc2[N+](=O)[O-])cc1
inactive: dose: 100.0 mg/kg/injection, schedule: Q04DX003 (ip), vehicle: saline 102 % of control | dose: 200.0 mg/kg/injection, schedule: Q04DX003 (ip), vehicle: saline 103 % of control

Cc1cccc(C(=O)CC(O)(C(F)(F)F)C(F)(F)F)c1
inactive: dose: 50.0 mg/kg/injection, schedule: Q04DX003 (ip), vehicle: saline with Tween-80 98 % of control | [19] 100 % of control | [20] 91 % of control | [21] 102 % of control

O=[N+]([O-])c1ccc(S)cc1
inactive: dose: 100.0 mg/kg/injection, schedule: Q01DX009 (ip), vehicle: saline sonified 103 % of control | [4] 89 % of control | dose: 200.0 mg/kg/injection, schedule: Q01DX009 (ip), vehicle: saline sonified 91 % of control | dose: 400.0 mg/kg/injection, schedule: Q01DX009 (ip), vehicle: saline sonified 92 % of control | [6] 90 % of control

Cc1ccc(OC/C=C/CS(=O)(=O)c2ccc(C)cc2)cc1
inactive: dose: 50.0 mg/kg/injection, schedule: Q01DX009 (ip), vehicle: Klucel (hydroxypropylcellulose) (HPC) 100 % of control | dose: 75.0 mg/kg/injection, schedule: Q01DX001 (ip), vehicle: Klucel (hydroxypropylcellulose) (HPC) 93 % of control | [13] 98 % of control | dose: 150.0 mg/kg/injection, schedule: Q01DX001 (ip), vehicle: Klucel (hydroxypropylcellulose) (HPC) 98 % of control | [14] 98 % of control | dose: 300.0 mg/kg/injection, schedule: Q01DX001 (ip), vehicle: Klucel (hydroxypropylcellulose) (HPC) 95 % of control

C=C1C(=O)O[C@H]2C1[C@H](OC(=O)/C(C)=C\COC(C)=O)C[C@]1(CO1)[C@@H]1[C@H](O)[C@H]3O[C@@]3(C)[C@@H]12 (stereo partly specified)
inactive: dose: 25.0 mg/kg/injection, schedule: Q04DX002 (ip), vehicle: other 105 % of control | dose: 50.0 mg/kg/injection, schedule: Q04DX002 (ip), vehicle: other 103 % of control | dose: 100.0 mg/kg/injection, schedule: Q04DX002 (ip), vehicle: other 97 % of control and 100 % of control

CCCCCCCCCCCCCCCCS(=O)(=O)N/N=C/c1ccc2c(c1)OCO2
inactive: dose: 100.0 mg/kg/injection, schedule: Q01DX001 (ip), vehicle: carboxymethylcellulose (CMC) 101 % of control | dose: 200.0 mg/kg/injection, schedule: Q01DX001 (ip), vehicle: carboxymethylcellulose (CMC) 98 % of control | dose: 400.0 mg/kg/injection, schedule: Q01DX001 (ip), vehicle: carboxymethylcellulose (CMC) 104 % of control

O=N/N=c1/sc2ccccc2n1-c1ccccc1
inactive: [10] 103 % of control | [11] 94 % of control | [12] 100 % of control

O=CC(=O)c1ccccc1
inactive: [16] 100 % of control | dose: 25.0 mg/kg/injection, schedule: Q01DX009 (ip), vehicle: saline 101 % of control | [17] 105 % of control | dose: 50.0 mg/kg/injection, schedule: Q01DX009 (ip), vehicle: saline 104 % of control | [18] 98 % of control | [22] 107 % of control

CC(=O)OC1CC2C=CC1C2 (stereo unspecified) (tested in a mixture with another compound)
inactive: [17] 89 % of control | [22] 89 % of control | dose: 200.0 mg/kg/injection, schedule: Q01DX009 (ip), vehicle: saline with Tween-80 92 % of control

CC12CCC(C(C(=O)O)C1=O)C2(C)C (stereo unspecified)
inactive: [19] 103 % of control | [20] 97 % of control | [21] 100 % of control

CCOC(=O)c1cnc(SC)nc1Nc1cccc([N+](=O)[O-])c1
inactive: [13] 110 % of control | [4] 97 % of control | [14] 97 % of control | [5] 98 % of control | [15] 95 % of control | [6] 95 % of control
